Read-outs that look alike come from different tables or passages of the source.
How the values were obtained:
SMARCA4 = SMARCA4 (Homo sapiens, UniProt P51532); assay: HiBiT assay for protein degradation, Hela SMARCA4-HiBiT cells (A series); type: cell-based; set-up: fuse HiBiT to the carboxy terminus of SMARCA2 (Promega CS302365) or SMARCA4 (Promega CS3023225); host or cells: HeLa (CRISPR/Cas9 HiBiT knock-in); details: for DC50: read-out: SMARC A4 Hela HiBit DC50
In short: (§1)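 HeLa cells engineered by CRISPR/Cas9 to carry a HiBiT tag fused to the C-terminus of SMARCA4 (Promega CS3023225) were grown in DMEM supplemented with FBS and penicillin-streptomycin. After compound exposure, remaining SMARCA4 protein was quantified using the Nano-Glo® HiBiT Lytic Detection Assay (Promega N3050), and curves were fitted in GraphPad Prism.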

SMARCA2 = SMARCA2 (Homo sapiens, UniProt P51531); assay: HiBiT assay for protein degradation, Hela SMARCA2-HiBiT cells (A series); type: cell-based; set-up: Hela cells were genetically modified via CRISPR/Cas9 to fuse HiBiT to the carboxy terminus of SMARCA2; host or cells: HeLa (CRISPR/Cas9 HiBiT knock-in); details: for DC50: read-out: SMARC A2 Hela HiBit DC50; for Dmax: read-out: SMARC A2 Hela HiBit Dmax (%);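 as to SMARC A2 Hela HiBit Dmax (%): 24 h compound treatment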
SMARCA2, sequence (P51531 whole entry): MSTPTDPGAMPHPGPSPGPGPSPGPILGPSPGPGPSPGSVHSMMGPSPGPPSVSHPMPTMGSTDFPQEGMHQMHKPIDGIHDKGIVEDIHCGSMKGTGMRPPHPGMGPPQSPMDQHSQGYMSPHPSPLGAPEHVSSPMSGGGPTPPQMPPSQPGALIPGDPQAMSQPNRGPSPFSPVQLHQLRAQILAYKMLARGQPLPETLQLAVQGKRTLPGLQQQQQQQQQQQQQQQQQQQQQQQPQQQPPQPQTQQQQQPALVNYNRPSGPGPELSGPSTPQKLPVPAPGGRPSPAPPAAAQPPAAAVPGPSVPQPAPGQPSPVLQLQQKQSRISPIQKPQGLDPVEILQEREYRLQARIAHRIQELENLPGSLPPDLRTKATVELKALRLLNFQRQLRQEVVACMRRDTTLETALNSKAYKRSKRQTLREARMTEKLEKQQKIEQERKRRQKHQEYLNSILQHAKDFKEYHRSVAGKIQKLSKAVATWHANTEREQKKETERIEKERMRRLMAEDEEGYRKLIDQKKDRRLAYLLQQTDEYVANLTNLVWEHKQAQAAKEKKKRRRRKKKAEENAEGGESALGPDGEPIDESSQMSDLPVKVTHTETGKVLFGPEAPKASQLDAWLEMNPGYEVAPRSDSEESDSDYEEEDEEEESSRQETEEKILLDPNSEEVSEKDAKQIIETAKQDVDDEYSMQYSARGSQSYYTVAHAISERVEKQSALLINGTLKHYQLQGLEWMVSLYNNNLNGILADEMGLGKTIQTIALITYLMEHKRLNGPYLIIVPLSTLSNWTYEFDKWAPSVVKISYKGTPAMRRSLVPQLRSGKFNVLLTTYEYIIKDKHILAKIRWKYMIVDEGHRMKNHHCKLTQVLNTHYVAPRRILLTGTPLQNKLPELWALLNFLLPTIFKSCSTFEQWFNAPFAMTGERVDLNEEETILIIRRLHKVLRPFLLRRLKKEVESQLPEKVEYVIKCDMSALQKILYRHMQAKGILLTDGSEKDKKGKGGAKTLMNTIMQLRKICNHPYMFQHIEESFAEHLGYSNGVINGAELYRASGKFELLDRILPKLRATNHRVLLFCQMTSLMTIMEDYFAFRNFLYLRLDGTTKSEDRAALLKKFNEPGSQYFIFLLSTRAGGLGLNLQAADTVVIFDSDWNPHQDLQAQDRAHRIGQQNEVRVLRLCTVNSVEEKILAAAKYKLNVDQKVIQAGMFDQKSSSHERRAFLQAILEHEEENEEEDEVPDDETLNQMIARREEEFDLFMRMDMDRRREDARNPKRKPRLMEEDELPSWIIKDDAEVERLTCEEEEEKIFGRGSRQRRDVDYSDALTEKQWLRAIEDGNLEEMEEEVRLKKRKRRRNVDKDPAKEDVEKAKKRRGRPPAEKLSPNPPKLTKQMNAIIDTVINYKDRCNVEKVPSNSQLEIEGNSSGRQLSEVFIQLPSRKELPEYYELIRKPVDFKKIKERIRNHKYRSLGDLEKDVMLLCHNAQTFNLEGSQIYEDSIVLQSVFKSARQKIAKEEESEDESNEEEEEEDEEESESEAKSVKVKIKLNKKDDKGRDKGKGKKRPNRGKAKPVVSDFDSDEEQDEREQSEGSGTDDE
In short: as §1, with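 “SMARCA2” for “SMARCA4”, “CS302365)” for “CS3023225)”, “treatment,” for “compound exposure,”, “with” for “using”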

[1] = Hela SMARCA4-HiBiT cells, 24 hours treatment
[2] = Hela SMARCA4-HiBiT cells, 24 hours treatment, read-out: SMARC A4 Hela HiBit Dmax
[3] = Hela SMARCA2-HiBiT cells, 24 hours treatment
[4] = Hela SMARCA4-HiBiT cells, 24 hours treatment, read-out: SMARC A4 Hela HiBit Dmax(%)

SMARCA4, sequence (P51532 whole entry, the tested form may be a part): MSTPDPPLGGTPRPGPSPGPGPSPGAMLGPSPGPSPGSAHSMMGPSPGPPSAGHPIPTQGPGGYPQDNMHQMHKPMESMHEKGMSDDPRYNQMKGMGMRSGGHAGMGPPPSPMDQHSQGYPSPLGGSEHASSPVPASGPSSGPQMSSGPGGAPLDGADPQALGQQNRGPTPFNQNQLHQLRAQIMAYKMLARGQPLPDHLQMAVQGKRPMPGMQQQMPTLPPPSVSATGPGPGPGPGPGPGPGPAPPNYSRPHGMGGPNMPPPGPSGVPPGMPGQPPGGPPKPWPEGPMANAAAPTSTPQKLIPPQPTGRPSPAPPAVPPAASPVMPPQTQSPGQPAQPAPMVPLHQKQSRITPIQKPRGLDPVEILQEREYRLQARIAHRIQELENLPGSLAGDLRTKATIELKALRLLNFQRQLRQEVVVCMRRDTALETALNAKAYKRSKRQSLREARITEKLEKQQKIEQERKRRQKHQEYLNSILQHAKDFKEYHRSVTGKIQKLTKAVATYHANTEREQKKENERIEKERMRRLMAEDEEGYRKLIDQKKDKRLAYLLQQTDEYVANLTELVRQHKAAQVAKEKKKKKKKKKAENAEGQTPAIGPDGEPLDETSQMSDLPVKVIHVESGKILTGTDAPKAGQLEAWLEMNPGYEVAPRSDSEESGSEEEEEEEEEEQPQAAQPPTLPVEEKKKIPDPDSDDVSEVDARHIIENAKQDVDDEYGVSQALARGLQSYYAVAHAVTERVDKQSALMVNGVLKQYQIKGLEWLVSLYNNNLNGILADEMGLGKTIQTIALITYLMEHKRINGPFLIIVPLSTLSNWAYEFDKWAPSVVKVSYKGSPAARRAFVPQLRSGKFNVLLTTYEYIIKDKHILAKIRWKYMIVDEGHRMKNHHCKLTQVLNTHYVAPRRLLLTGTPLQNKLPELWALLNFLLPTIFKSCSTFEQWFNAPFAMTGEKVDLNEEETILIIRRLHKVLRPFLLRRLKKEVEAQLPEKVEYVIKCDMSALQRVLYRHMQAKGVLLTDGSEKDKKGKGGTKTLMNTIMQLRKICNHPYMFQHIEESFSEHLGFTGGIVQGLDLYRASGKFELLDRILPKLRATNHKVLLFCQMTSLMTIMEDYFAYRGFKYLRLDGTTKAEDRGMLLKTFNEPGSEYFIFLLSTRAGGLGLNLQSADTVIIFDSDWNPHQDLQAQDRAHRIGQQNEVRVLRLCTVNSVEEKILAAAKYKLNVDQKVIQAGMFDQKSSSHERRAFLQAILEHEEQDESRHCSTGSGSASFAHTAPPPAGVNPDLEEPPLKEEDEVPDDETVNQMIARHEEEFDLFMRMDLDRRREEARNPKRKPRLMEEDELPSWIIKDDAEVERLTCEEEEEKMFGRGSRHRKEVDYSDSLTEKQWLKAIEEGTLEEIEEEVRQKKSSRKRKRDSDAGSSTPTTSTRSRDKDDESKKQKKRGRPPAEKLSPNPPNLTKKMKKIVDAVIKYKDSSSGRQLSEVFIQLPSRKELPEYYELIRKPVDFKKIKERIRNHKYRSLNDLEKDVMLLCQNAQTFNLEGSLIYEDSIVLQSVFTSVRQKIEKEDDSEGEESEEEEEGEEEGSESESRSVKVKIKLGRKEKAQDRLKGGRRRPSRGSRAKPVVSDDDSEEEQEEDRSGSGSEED

Row | DC50 (SMARCA4; [1]) | Dmax (SMARCA4; [2]) | DC50 (SMARCA2; [3]) | Dmax (SMARCA2; [3]) | SMARC A4 Hela HiBit Dmax(%) (SMARCA4; [1]) | DC50 (SMARCA4) | SMARC A2 Hela HiBit Dmax (%) (SMARCA2; [3]) | DC50 (SMARCA2) | SMILES | also measured
1 | > 1000 nM | 50 to 69% | < 10 nM | > 90% | – | – | – | – | Cc1ncsc1-c1ccc([C@H](C)NC(=O)[C@@H]2C[C@@H](O)CN2C(=O)[C@@H](n2cc([C@H]3CC[C@H](CN4CCC(c5ccc6c(c5)-n5c(nc(=O)c7c(Cl)cccc75)C6(C)C)CC4)CC3)nn2)C(C)(C)C)cc1 [Compound A89, (2S,4R)-1-((S)-2-(4-((1r,4S)-4-((4-(4-chloro-7,7-dimethyl-5-oxo-5,7-dihydroindolo[1,2-a]quinazolin-10-yl)piperidin-1-yl)methyl)cyclohexyl)-1H-1,2,3-triazol-1-yl)-3,3-dimethylbutanoyl)-4-hydroxy-N—((S)-1-(4-(4-methylthiazol-5-yl)phenyl)ethyl)pyrrolidine-2-carboxamide] | –
2 | – | 50 to 69% | < 10 nM | > 90% | – | – | – | – | Cc1ncsc1-c1ccc([C@H](CN2CCOCC2)NC(=O)[C@@H]2C[C@@H](O)CN2C(=O)[C@H](C2CCCCC2)n2cc([C@H]3CC[C@H](CN4CCC(c5ccc6c(c5)-n5c(nc(=O)c7c(Cl)cccc75)C65CCCCC5)CC4)CC3)nn2)cc1 [Compound A122, (2S,4R)-1-((S)-2-(4-((1r,4S)-4-((4-(4′-chloro-5′-oxo-5′H-spiro[cyclohexane-1,7′-indolo[1,2-a]quinazolin]-10′-yl)piperidin-1-yl)methyl)cyclohexyl)-1H-1,2,3-triazol-1-yl)-2-cyclohexylacetyl)-4-hydroxy-N—((R)-1-(4-(4-methylthiazol-5-yl)phenyl)-2-morpholinoethyl)pyrrolidine-2-carboxamide] | SMARC A4 Hela HiBit DC50(nM) (SMARCA4; [1]): No fit
3 | 100 to 1000 nM | 50 to 69% | < 10 nM | > 90% | – | – | – | – | CC(C)(C)[C@@H](C(=O)N1C[C@H](O)C[C@H]1C(=O)N[C@@H](CN1CCOCC1)c1ccc(-c2cccnc2)cc1)n1cc([C@H]2CC[C@H](CN3CCC(c4ccc5c(c4)-n4c(nc(=O)c6c(Cl)cccc64)C54CCCCC4)CC3)CC2)nn1 [Compound A171, (2S,4R)-1-((S)-2-(4-((1r,4S)-4-((4-(4′-chloro-5′-oxo-5′H-spiro[cyclohexane-1,7′-indolo[1,2-a]quinazolin]-10′-yl)piperidin-1-yl)methyl)cyclohexyl)-1H-1,2,3-triazol-1-yl)-3,3-dimethylbutanoyl)-4-hydroxy-N—((R)-2-morpholino-1-(4-(pyridin-3-yl)phenyl)ethyl)pyrrolidine-2-carboxamide] | –
4 | > 1000 nM | < 50% | > 1000 nM | < 50% | – | – | – | – | CC(C)(C)[C@@H](C(=O)N1C[C@H](O)C[C@H]1C(=O)N[C@@H](CN1CCOCC1)c1ccc(-c2scnc2C(F)(F)F)cc1)n1cc([C@H]2CC[C@H](CN3CCC(c4ccc5c(c4)-n4c(nc(=O)c6c(Cl)cccc64)C54CCCCC4)CC3)CC2)nn1 [Compound A167, (2S,4R)-1-((S)-2-(4-((1r,4S)-4-((4-(4′-chloro-5′-oxo-5′H-spiro[cyclohexane-1,7′-indolo[1,2-a]quinazolin]-10′-yl)piperidin-1-yl)methyl)cyclohexyl)-1H-1,2,3-triazol-1-yl)-3,3-dimethylbutanoyl)-4-hydroxy-N—((R)-2-morpholino-1-(4-(4-(trifluoromethyl)thiazol-5-yl)phenyl)ethyl)pyrrolidine-2-carboxamide] | –

Further lines, the compound ahead of its results:

Row | SMILES | DC50 (SMARCA4; [1]) | Dmax (SMARCA4; [2]) | DC50 (SMARCA2; [3]) | Dmax (SMARCA2; [3]) | SMARC A4 Hela HiBit Dmax(%) (SMARCA4; [1]) | DC50 (SMARCA4) | SMARC A2 Hela HiBit Dmax (%) (SMARCA2; [3]) | DC50 (SMARCA2) | also measured
5 | Cc1ncsc1-c1ccc([C@H](C)NC(=O)[C@@H]2C[C@@H](O)CN2C(=O)[C@@H](n2cc([C@H]3C[C@H](CN4CCC(c5ccc6c(c5)-n5c(nc(=O)c7c(Br)cccc75)C65CCCCC5)CC4)C3)nn2)C(C)(C)C)cc1 [Compound A63, (2S,4R)-1-((S)-2-(4-((1r,3S)-3-((4-(4′-bromo-5′-oxo-5′H-spiro[cyclohexane-1,7′-indolo[1,2-a]quinazolin]-10′-yl)piperidin-1-yl)methyl)cyclobutyl)-1H-1,2,3-triazol-1-yl)-3,3-dimethylbutanoyl)-4-hydroxy-N—((S)-1-(4-(4-methylthiazol-5-yl)phenyl)ethyl)pyrrolidine-2-carboxamide] | – | – | – | – | B (B (70-90% degradation)) | < 100 nM | A (A (>90% degradation)) | < 100 nM | –
6 | Cc1ncsc1-c1ccc([C@H](C)NC(=O)[C@@H]2C[C@@H](O)CN2C(=O)[C@@H](n2cc(CCCCCCN3CCC(c4ccc5c(c4)-n4c(nc(=O)c6c(Br)cccc64)C54CCCCC4)CC3)nn2)C(C)(C)C)cc1 [Compound A47, (2S,4R)-1-((S)-2-(4-(6-(4-(4′-bromo-5′-oxo-5′H-spiro[cyclohexane-1,7′-indolo[1,2-a]quinazolin]-10′-yl)piperidin-1-yl)hexyl)-1H-1,2,3-triazol-1-yl)-3,3-dimethylbutanoyl)-4-hydroxy-N—((S)-1-(4-(4-methylthiazol-5-yl)phenyl)ethyl)pyrrolidine-2-carboxamide] | – | – | – | – | A (A (>90% degradation)) | < 100 nM | A (A (>90% degradation)) | < 100 nM | –
7 | Cc1ncsc1-c1ccc([C@H](C)NC(=O)[C@@H]2C[C@@H](O)CN2C(=O)[C@@H](NC(=O)[C@H]2CC[C@H](CN3CC(N4CCC(c5ccc6c(c5)C5(CCCCC5)c5nc(=O)c7c(Cl)cccc7n5-6)CC4)C3)CC2)C(C)(C)C)cc1 [Compound A12, (2S,4R)-1-((S)-2-((1r,4S)-4-((3-(4-(4′-chloro-5′-oxo-5′H-spiro[cyclohexane-1,7′-indolo[1,2-a]quinazolin]-9′-yl)piperidin-1-yl)azetidin-1-yl)methyl)cyclohexane-1-carboxamido)-3,3-dimethylbutanoyl)-4-hydroxy-N—((S)-1-(4-(4-methylthiazol-5-yl)phenyl)ethyl)pyrrolidine-2-carboxamide] | 501 to 1000 nM | – | 100 to 500 nM | 70 to 90% | – | – | – | – | Dmax (SMARCA4; [4]): 50 to 69%
8 | Cc1ncsc1-c1ccc([C@H](CCCCCN2CCC(c3ccc4c(c3)C3(CCCCC3)c3nc(=O)c5c(Cl)cccc5n3-4)CC2)NC(=O)[C@@H]2C[C@@H](O)CN2C(=O)[C@@H](NC(=O)C2(F)CC2)C(C)(C)C)cc1 [Compound A3, (2S,4R)—N—((S)-6-(4-(4′-chloro-5′-oxo-5′H-spiro[cyclohexane-1,7′-indolo[1,2-a]quinazolin]-9′-yl)piperidin-1-yl)-1-(4-(4-methylthiazol-5-yl)phenyl)hexyl)-1-((S)-2-(1-fluorocyclopropane-1-carboxamido)-3,3-dimethylbutanoyl)-4-hydroxypyrrolidine-2-carboxamide] | < 100 nM | – | < 100 nM | – | – | – | – | – | Dmax (SMARCA4; HeLa, read-out: SMARC A4 Hela HiBit Dmax(%)): > 90%; Dmax (SMARCA2; HeLa): > 90%
9 | CC(C)(C)[C@H](NC(=O)C1(F)CC1)C(=O)N1C[C@H](O)C[C@H]1C(=O)N[C@@H](CCCCCN1CCC(c2ccc3c(c2)-n2c(nc(=O)c4c(Br)cccc42)C32CCCCC2)CC1)c1ccc(Cl)cc1 [Compound A26, (2S,4R)—N—((S)-6-(4-(4′-bromo-5′-oxo-5′H-spiro[cyclohexane-1,7′-indolo[1,2-a]quinazolin]-10′-yl)piperidin-1-yl)-1-(4-chlorophenyl)hexyl)-1-((S)-2-(1-fluorocyclopropane-1-carboxamido)-3,3-dimethylbutanoyl)-4-hydroxypyrrolidine-2-carboxamide] | – | – | – | – | D (D (<50% degradation)) | > 1000 nM | D (D (<50% degradation)) | > 1000 nM | –
10 | Cc1ncsc1-c1ccc([C@H](CN2CCOCC2)NC(=O)[C@@H]2C[C@@H](O)CN2C(=O)[C@@H](NC(=O)[C@H]2CC[C@H](CN3CCC(c4ccc5c(c4)C4(CCCCC4)c4nc(=O)c6c(Br)cccc6n4-5)CC3)CC2)C(C)(C)C)cc1 [Compound A16, (2S,4R)-1-((S)-2-((1r,4S)-4-((4-(4′-bromo-5′-oxo-5′H-spiro[cyclohexane-1,7′-indolo[1,2-a]quinazolin]-9′-yl)piperidin-1-yl)methyl)cyclohexane-1-carboxamido)-3,3-dimethylbutanoyl)-4-hydroxy-N—((R)-1-(4-(4-methylthiazol-5-yl)phenyl)-2-morpholinoethyl)pyrrolidine-2-carboxamide] | 501 to 1000 nM | – | < 100 nM | > 90% | – | – | – | – | Dmax (SMARCA4; [4]): 50 to 69%
